From patent US12624038B2, “Molecules and methods related to treatment of uncontrolled cellular proliferation” (ST. JUDE CHILDREN'S RESEARCH HOSPITAL, priority 2019, dated 2026)
Several values for one entry are separate records, joined by “and”; a condition that tells them apart may be missing. Identical values can stand only once. Entries after “also recorded” stand apart in the source; their conditions may differ. Like-named read-outs stand apart in the source and are kept apart here.

Experiments:
Caco-2 cells = test: Caco-2 cell permeability; type: in vitro ADME; settings: A to B (Table 4)
Protocol: Compound Caco-2 cell permeability was determined using the Transwell® 0.4 μm polycarbonate membrane 96-well as described before (Uchida, et al. (2009) J Pharmacol Toxicol Methods 59(1): 39-43). Briefly, Caco-2 cells monolayers were incubated over 2 hours at 37° C. Fractions were collected from receivers (basal side, B), and concentrations were assessed by UPLC/MS (Waters; Milford, MA). All compounds were tested in triplicates. The A→B (or B→A) apparent permeability coefficients (Papp) of each compound were calculated using the equation, Papp=dQ/dt×1/AC0, where dQ/dt equals the flux of a drug across the monolayer, A equals the total insert well surface area, and C0 is the initial concentration of substrate in the donor compartment.

[1] = In vivo pharmacokinetic (PK) study in NSG mice; parameters: species or system mouse; settings: for concentration at 24 h: read-out: Clast
Protocol: Nontumor bearing female NSG mice (n=6), aged 8-12 weeks were dosed i.p. with single dose of compound 7 at 30 mg/kg and 100 mg/kg, respectively. Compound 7 was suspended in 60% PEG400+10% DMSO+[…] and the dosing volume is 5 ml/kg to get the target dose. For each dose, three mice were injected with a single dose and blood samples were collected at 0.5, 1, 2, 4, 8 and 24 hours by retro-orbital eye bleed technique. Blood samples ([…]) were collected and compound 7 concentration levels determined by LC-MS.

CRLF2r B-ALL xenograft = test: In vivo efficacy in CRLF2r B-ALL xenograft (PDX) in NSG mice; parameters: species or system mouse; settings: compound 7 30 mg/kg i.p. daily
[2] = Tolerability (weight, blood counts) of NSG mice in the in vivo efficacy study; settings: 28-day period, 30 mg/kg i.p. daily
Protocol: Female NOD.Cg-Prkdcscid Il2rgtm1Wjl/SzJ (NSG) mice aged 8-12 weeks were used for xenotransplantation. All experimental work was carried out according to Office of Laboratory Animal Welfare guidelines and was approved by Institutional Animal Care and Use Committee of St. Jude Children's Research Hospital. Mice aged 8-12 weeks were inoculated by tail vein injection with 1×10^6 leukemic cells transduced with a lentiviral vector containing the firefly luciferase and yellow fluorescent protein genes (CL20SF2-Luc2aYFP) (Sprowl, et al. (2013) Clin Pharmacol Ther. 94(5): 585-592). Leukemia burden was determined by weekly bioluminescence imaging using the Xenogen IVIS-200 system and Living Image software (Caliper Life Sciences). Treatment was commenced when luminescence averaged approximately […] photons/second. Mice were dosed with compound 7 at 30 mg/kg i.p. daily. […]. At the end of the study, cells from spleen, bone marrow and blood were harvested and stained with mouse CD45-APC-Cy7, human CD45-BV405, human CD19-PE antibodies and analyzed by flow cytometry to determine the percentage of human CD45 positive cells. For western blot, spleen leukemia cells were obtained by purification with hCD19 MicroBeads (Miltenyi biotech, Cat #130-050-301) per manufacturer's protocol. Efficacy was determined by linear regression and two-way ANOVA analysis in Prism (GraphPad Software, version 8.4.2).

[3] = tested on: JAK family kinases and GSPT1; test: In vivo pharmacodynamics, immunoblotting for Janus kinases and GSPT1 in engrafted leukemic cells; parameters: species or system mouse; settings: 10, 30 and 100 mg/kg i.p., 2 daily doses
Protocol: Cells were washed twice with ice-cold PBS and lysed in RIPA lysis buffer (Sigma) freshly supplemented with Halt™ Protease Inhibitor Cocktail (ThermoFisher) for 15 minutes on ice. The cell pellet was removed by centrifugation at 13,000 g at 4° C. for 15 minutes. Protein concentration was measured by BCA assay (Thermo Fisher Scientific). Proteins were denatured in NuPAGE LDS 4× sample buffer supplemented with reducing agents (Invitrogen). Typically, 10-20 μg of total protein was loaded per lane on a 4%-12% NuPAGE Bis-Tris gradient gel (Invitrogen) and analyzed by standard immunoblotting and imaged using Li-COR Odyssey CLx (LI-COR Biotechnology, Lincoln, NE). Primary antibodies used were: JAK1 (Cell Signaling #3332S), JAK2 (#3230S), JAK3 (#8827S), TYK2 (#9312S), GSPT1 (#14980S), CRBN (#71810S), IKZF1 (Santa Cruz Biotechnology, SC-398265) and ACBT (Santa Cruz Biotechnology, SC-47778).
For pharmacodynamic studies, after engraftment, mice with >50% hCD45 cells in peripheral blood were dosed with 10, 30 or 100 mg/kg i.p. of compound 7 for 2 daily doses. One hour after the second dose, mice were euthanized, and cells collected from bone marrow and spleen. For phosphoflow cytometry analysis, 0.75×10^6 bone marrow cells in 3 ml of medium were fixed by adding 1 ml of 10% formaldehyde and incubated at room temperature for 10 minutes. […]

[4] = NSG mice, single dose i.p. 30 mg/kg, per mouse, 30 mg/kg
[5] = NSG mice, single dose i.p. 100 mg/kg, per mouse, 100 mg/kg
[6] = female, NSG, mouse, plasma, ip, 30 mg/kg, NSG mice, single dose i.p. 30 mg/kg, per mouse

## CCCn1cc(-c2nc(Nc3ccc(C(=O)NCCCCNc4cccc5c4C(=O)N(C4CCC(=O)NC4=O)C5=O)cc3)nc3[nH]ccc23)cn1 (stereo not drawn) [Compound 7]
Caco-2 cells
  Cac2 Papp A/B: 19.12 nm/S
[1]; 30 and 100 mg/kg, intraperitoneal dosing
  plasma concentration after 24 hours: well above the compounds cellular EC50 value
[1]; NSG mice, single dose i.p. 30 mg/kg, per mouse
  Tlast: 24 h
[1]; [4]
  AUClast: 1759.1 ng·h/mL and 2248.2 ng·h/mL
  Clast: 53 ng/mL and 74.3 ng/mL
  Cmax: 125.8 ng/mL and 155.3 ng/mL
[1]; NSG mice, single dose i.p. 100 mg/kg, per mouse
  Tlast: 24 h
[1]; [5]
  AUClast: 1884.7 ng·h/mL and 2179.3 ng·h/mL and 4459 ng·h/mL
  Clast: 79.1 ng/mL and 152 ng/mL
  Cmax: 181.3 ng/mL and 233.2 ng/mL and 410.5 ng/mL
[1]; [6]
  AUC(0-t): 1350 ng·h/mL
  concentration at 24 h: 45.5 ng/mL
[1]; female, NSG, mouse, plasma, ip, 30 mg/kg, NSG mice, single dose i.p. 30 mg/kg, per mouse, read-out: Cmax
  Cmax: 115 ng/mL
[1]; female, NSG, mouse, plasma, ip, 100 mg/kg, NSG mice, single dose i.p. 100 mg/kg, per mouse
  concentration at 24 h: 98.1 ng/mL
CRLF2r B-ALL xenograft
  spleen size and tumor burden in PDX model: reduced spleen size and tumor burden
CRLF2r B-ALL xenograft; ruxolitinib 50 mg/kg oral gavage twice daily, 28-day dosing period
  leukemia burden / leukemic cell proliferation in CRLF2r B-ALL xenograft: marked reduction in leukemia burden; also recorded: slowed leukemia growth
[2]
  tolerability: weight and blood counts: well tolerated with no weight loss or perturbation in blood counts
[3]
  JAK/GSPT1 degradation in vivo: near maximal at the 30 mg/kg dose
